Reference: US11833149B2, “Pulse dosing regimen and methods of treatment” (OSI Pharmaceuticals, LLC, priority 2016, dated 2023)
“Also recorded” adds a separate entry of the source.

What was measured:
[1] = pH of approximately 2; over the pH range of 1.4 to 9.6; cited from earlier work
[2] = Phase 1 study: pharmacokinetic analysis of plasma (LC-MS/MS); assay type: in vivo, patients
Procedure: Pharmacokinetic analysis: Whole-blood samples for plasma were collected at prescheduled time points for pharmacokinetic (PK) analysis. Plasma levels of erlotinib were determined using a validated liquid chromatography-tandem mass spectrometry assay. […] MS detection was using an AB SCIEX API 4000 triple quadrupole mass spectrometer operating in positive ion electrospray ionization (ESI) mode. Standard PK parameters were calculated using a noncompartmental method (WiNNonlin, Pharsight).

EGFR-mutant lung cancers = assay: Phase 1 study of pulse-continuous erlotinib: response (RECIST 1.1) and progression-free survival; assay type: in vivo, patients
Procedure: (§1) The study was registered at clinicaltrials.gov (NCT01967095). […] All patients provided written informed consent.
Prior cytotoxic chemotherapy was allowed. Patients were required to have measurable disease per RECIST (Response Evaluation Criteria in Solid Tumours), version 1.1). […] Patients with clinically stable brain metastases, either treated or untreated, were eligible.
Response assessments: Response to therapy was assessed by interval imaging every 6 weeks with a CT scan with response evaluated per RECIST 1.1. After six cycles on treatment, patients could reduce the radiographic assessments to every 4 cycles (12 weeks).
Statistical Analysis: Descriptive statistics were used to summarize the clinical characteristics of the patients. Progression-free survival was estimated using the Kaplan-Meier method, and defined as the time from start of study therapy until progression or death. […] Response rates were calculated using binomial proportions and exact 95% CIs. All statistical analyses were performed using R 3.2.2 (R Development Core Team) including the “survival” and “Hmisc” packages.

brain metastases = assay: Phase 1 study of pulse-continuous erlotinib: central nervous system activity; assay type: in vivo, patients
Excerpt: as §1
Central nervous system activity: A brain MRI was required at enrollment.

[3] = in vivo
Procedure: (§2) Toxicity assessments: Patients were assessed five times during cycle 1 (28 days) and then every 21 days thereafter. Patient history, physical examination, complete blood count and serum chemistries were performed at each visit. Toxicity was graded according to the National Cancer Institute Common Terminology Criteria for Adverse Events (NCI CTCAE), version 4.

[4] = cited from earlier work
[5] = system: EGFR-mutant lung cancers with CNS involvement; conditions: median dose erlotinib 1500 mg once weekly (Grommes et al.); cited from earlier work
[6] = cited from earlier work; remark: listed apart in the source
[7] = Phase 1 dose-escalation study of pulse-continuous erlotinib: DLT, MTD, adverse events
Procedure: as §2

[8] = erlotinib 1500 mg once weekly (Clarke et al.)

C#Cc1cccc(Nc2ncnc3cc(OCCOC)c(OCCOC)cc23)c1.Cl [Erlotinib hydrochloride]
maximal aqueous solubility [1]: approximately 0.4 mg/mL

C#Cc1cccc(Nc2ncnc3cc(OCCOC)c(OCCO)cc23)c1 [OSI-420]
dose-dependence of metabolite with increasing pulse doses of erlotinib ([2]; in vivo): no significant dose-dependence

C#Cc1cccc(Nc2ncnc3cc(OCCOC)c(OCCOC)cc23)c1 [erlotinib, N-(3-ethynylphenyl)-6,7-bis(2-methoxyethoxy)-4-quinazolinamine]
patients with complete response (EGFR-mutant lung cancers; 34 patients): one | patients with confirmed partial responses (EGFR-mutant lung cancers; 34 patients): Twenty-four | median progression-free survival (EGFR-mutant lung cancers; 95% CI 5.8-15.4 months): 9.9 months | overall response rate (EGFR-mutant lung cancers; intent to treat, 34 patients, 95% CI 60-84%): 74% | change in the sum of target lesions (EGFR-mutant lung cancers; patients with radiographic assessment): All patients had a decrease | patients with evidence of tumor regression in the CNS (brain metastases; 6 patients with untreated brain metastases): 6 | radiographic evidence of new or progressing brain metastases (brain metastases; 16 patients with CNS imaging within three months of coming off study for progression): none | CNS progression on study treatment (brain metastases; all patients): none of the patients; also recorded: No patients | change of peak plasma concentration with increasing pulse doses ([2]; 600 mg to 1,350 mg, Cycle 1): no significant increases | range of peak plasma concentration ([2]; 4 hr post-administration, Week 2): 2,600-9355 ng/mL | median peak plasma concentration ([2]; 4 hr post-administration, after the second day of weekly pulse dose at Week 2): 5,393 ng/mL | median plasma trough concentration ([2]; before the pulse dosing at the start of week 4): 435 ng/mL | median plasma trough concentration ([2]; start of week 4): 1.1 µM | range of plasma trough concentration ([2]; start of week 4): 29 to 1655 ng/mL | ALT elevated Grade 1 (% of patients) ([3]; human): (18%) | ALT elevated Grade 1 (patients) ([3]; human): 6 | ALT elevated Grade 2 (% of patients) ([3]; human): (3%) | ALT elevated Grade 2 (patients) ([3]; human): 1 | ALT elevated Grade 3 (% of patients) ([3]; human): (3%) | ALT elevated Grade 3 (patients) ([3]; human): 1 | ALT elevated Grade 4 (patients) ([3]; human): 0 | ALT elevated Total (any grade) (% of patients) ([3]; human): (24%) | ALT elevated Total (any grade) (patients) ([3]; human): 8 | AST increased Grade 1 (% of patients) ([3]; human): (15%) | AST increased Grade 1 (patients) ([3]; human): 5 | AST increased Grade 2 (% of patients) ([3]; human): (3%) | AST increased Grade 2 (patients) ([3]; human): 1 | AST increased Grade 3 (patients) ([3]; human): 0 | AST increased Grade 4 (patients) ([3]; human): 0 | AST increased Total (any grade) (% of patients) ([3]; human): (18%) | AST increased Total (any grade) (patients) ([3]; human): 6 | Alopecia Grade 1 (% of patients) ([3]; human): (21%) | Alopecia Grade 1 (patients) ([3]; human): 7 | Alopecia Grade 2 (patients) ([3]; human): 0 | Alopecia Grade 3 (patients) ([3]; human): 0 | Alopecia Grade 4 (patients) ([3]; human): 0 | Alopecia Total (any grade) (% of patients) ([3]; human): (21%) | Alopecia Total (any grade) (patients) ([3]; human): 7 | Anemia Grade 1 (% of patients) ([3]; human): (6%) | Anemia Grade 1 (patients) ([3]; human): 2 | Anemia Grade 2 (% of patients) ([3]; human): (3%) | Anemia Grade 2 (patients) ([3]; human): 1 | Anemia Grade 3 (% of patients) ([3]; human): (3%) | Anemia Grade 3 (patients) ([3]; human): 1 | Anemia Grade 4 (patients) ([3]; human): 0 | Anemia Total (any grade) (% of patients) ([3]; human): (12%) | Anemia Total (any grade) (patients) ([3]; human): 4 | Anorexia Grade 1 (% of patients) ([3]; human): (9%) | Anorexia Grade 1 (patients) ([3]; human): 3 | Anorexia Grade 2 (% of patients) ([3]; human): (6%) | Anorexia Grade 2 (patients) ([3]; human): 2 | Anorexia Grade 3 (patients) ([3]; human): 0 | Anorexia Grade 4 (patients) ([3]; human): 0 | Anorexia Total (any grade) (% of patients) ([3]; human): (15%) | Anorexia Total (any grade) (patients) ([3]; human): 5 | Bilirubin increased Grade 1 (% of patients) ([3]; human): (12%) | Bilirubin increased Grade 1 (patients) ([3]; human): 4 | Bilirubin increased Grade 2 (% of patients) ([3]; human): (15%) | Bilirubin increased Grade 2 (patients) ([3]; human): 5 | Bilirubin increased Grade 3 (% of patients) ([3]; human): (6%) | Bilirubin increased Grade 3 (patients) ([3]; human): 2 | Bilirubin increased Grade 4 (patients) ([3]; human): 0 | Bilirubin increased Total (any grade) (% of patients) ([3]; human): (32%) | Bilirubin increased Total (any grade) (patients) ([3]; human): 11 | Diarrhea Grade 1 (% of patients) ([3]; human): (71%) | Diarrhea Grade 1 (patients) ([3]; human): 24 | Diarrhea Grade 2 (% of patients) ([3]; human): (3%) | Diarrhea Grade 2 (patients) ([3]; human): 1 | Diarrhea Grade 3 (% of patients) ([3]; human): (12%) | Diarrhea Grade 3 (patients) ([3]; human): 4 | Diarrhea Grade 4 (patients) ([3]; human): 0 | Diarrhea Total (any grade) (% of patients) ([3]; human): (85%) | Diarrhea Total (any grade) (patients) ([3]; human): 29 | Dry skin Grade 1 (% of patients) ([3]; human): (29%) | Dry skin Grade 1 (patients) ([3]; human): 10 | Dry skin Grade 2 (patients) ([3]; human): 0 | Dry skin Grade 3 (patients) ([3]; human): 0 | Dry skin Grade 4 (patients) ([3]; human): 0 | Dry skin Total (any grade) (% of patients) ([3]; human): (29%) | Dry skin Total (any grade) (patients) ([3]; human): 10 | Fatigue Grade 1 (% of patients) ([3]; human): (24%) | Fatigue Grade 1 (patients) ([3]; human): 8 | Fatigue Grade 2 (% of patients) ([3]; human): (12%) | Fatigue Grade 2 (patients) ([3]; human): 4 | Fatigue Grade 3 (patients) ([3]; human): 0 | Fatigue Grade 4 (patients) ([3]; human): 0 | Fatigue Total (any grade) (% of patients) ([3]; human): (35%) | Fatigue Total (any grade) (patients) ([3]; human): 12 | Mucositis Grade 1 (% of patients) ([3]; human): (24%) | Mucositis Grade 1 (patients) ([3]; human): 8 | Mucositis Grade 2 (% of patients) ([3]; human): (9%) | Mucositis Grade 2 (patients) ([3]; human): 3 | Mucositis Grade 3 (% of patients) ([3]; human): (3%) | Mucositis Grade 3 (patients) ([3]; human): 1 | Mucositis Grade 4 (patients) ([3]; human): 0 | Mucositis Total (any grade) (% of patients) ([3]; human): (35%) | Mucositis Total (any grade) (patients) ([3]; human): 12 | Nausea Grade 1 (% of patients) ([3]; human): (29%) | Nausea Grade 1 (patients) ([3]; human): 10 | Nausea Grade 2 (% of patients) ([3]; human): (9%) | Nausea Grade 2 (patients) ([3]; human): 3 | Nausea Grade 3 (% of patients) ([3]; human): (6%) | Nausea Grade 3 (patients) ([3]; human): 2 | Nausea Grade 4 (patients) ([3]; human): 0 | Nausea Total (any grade) (% of patients) ([3]; human): (44%) | Nausea Total (any grade) (patients) ([3]; human): 15 | Paronychia Grade 1 (% of patients) ([3]; human): (12%) | Paronychia Grade 1 (patients) ([3]; human): 4 | Paronychia Grade 2 (% of patients) ([3]; human): (6%) | Paronychia Grade 2 (patients) ([3]; human): 2 | Paronychia Grade 3 (patients) ([3]; human): 0 | Paronychia Grade 4 (patients) ([3]; human): 0 | Paronychia Total (any grade) (% of patients) ([3]; human): (18%) | Paronychia Total (any grade) (patients) ([3]; human): 6 | Pruritis Grade 1 (% of patients) ([3]; human): (32%) | Pruritis Grade 1 (patients) ([3]; human): 11 | Pruritis Grade 2 (patients) ([3]; human): 0 | Pruritis Grade 3 (patients) ([3]; human): 0 | Pruritis Grade 4 (patients) ([3]; human): 0 | Pruritis Total (any grade) (% of patients) ([3]; human): (32%) | Pruritis Total (any grade) (patients) ([3]; human): 11 | Rash Grade 1 (% of patients) ([3]; human): (62%) | Rash Grade 1 (patients) ([3]; human): 21 | Rash Grade 2 (% of patients) ([3]; human): (24%) | Rash Grade 2 (patients) ([3]; human): 8 | Rash Grade 3 (% of patients) ([3]; human): (3%) | Rash Grade 3 (patients) ([3]; human): 1 | Rash Grade 4 (patients) ([3]; human): 0 | Rash Total (any grade) (% of patients) ([3]; human): (88%) | Rash Total (any grade) (patients) ([3]; human): 30 | Vomiting Grade 1 (% of patients) ([3]; human): (26%) | Vomiting Grade 1 (patients) ([3]; human): 9 | Vomiting Grade 2 (% of patients) ([3]; human): (3%) | Vomiting Grade 2 (patients) ([3]; human): 1 | Vomiting Grade 3 (% of patients) ([3]; human): (3%) | Vomiting Grade 3 (patients) ([3]; human): 1 | Vomiting Grade 4 (patients) ([3]; human): 0 | Vomiting Total (any grade) (% of patients) ([3]; human): (32%) | Vomiting Total (any grade) (patients) ([3]; human): 11 | patients removed for diarrhea ([3]; human): 2 | patients removed for hyperbilirubinemia ([3]; human): 1 | patients removed for mucositis ([3]; human): 1 | patients removed for possible pneumonitis ([3]; human): 1 | patients removed for transaminitis ([3]; human): 1 | patients removed from the study for toxicity [3]: Six | patients requiring a dose reduction of the pulse dose [3]: three of sixteen | tolerability [3]: well tolerated | cerebrospinal fluid (CSF) concentration as % of plasma concentration ([4]; Togashi et al.): 3-5% | concurrent CSF concentration [4, 8]: 120 nM | peak plasma concentration [4, 8]: 11,300 nM | patients with partial response in the CNS [5]: Six of nine | maximum tolerated dose (MTD) ([6]; once weekly, unselected patients with advanced lung cancers (Milton et al.), MTD not reached): ≥ 2000 mg | MTD ([6]; twice-weekly pulse dose (Chia et al.), DLT of rash at higher dose levels): 1000 mg | deaths on study ([7]; all 34 patients): no deaths | grade four or five toxicities ([7]; all 34 patients): No grade four or five toxicities | MTD (pulse dose) ([7]; pulse on days 1 and 2 with 50 mg erlotinib on days 3 to 7): 1200 mg
